Measured values from US20230148588A1, “METHODS, COMPOSITIONS, AND SYSTEMS FOR ENHANCING EX-VIVO ORGAN PERFUSION” (University Health Network, priority 2020, published 2023).
“Also recorded” adds a separate entry of the source. Each block holds one compound with its values, some of them ahead of it. Where a SMILES comes first, the peptide text is derived from it.

Tests used:
[1] = tested on: human lung epithelial cells (BEAS-2B); experiment: Basic cellular function of cells exposed to Steen solution and its modifications (IncuCyte Live Cell Analysis); format: cell-based; conditions: for apoptosis / cell migration: GlutaMax added at 4 mM to Steen solution, vs Steen solution
From the text: (§1) Methods: Human pulmonary microvascular endothelial cells (HPMEC) and human lung epithelial cells (BEAS-2B) were used to determine the effects of Steen solution components on basic cellular function. Cell confluence, apoptosis and migration were visualized and quantified by IncuCyte® Live Cell Analysis System in real-time. A simulated EVLP cell culture model was established by replacing regular culture medium with cold lung preservation solution and followed by “perfusion” with normothermic Steen solution or its modifications. Cell apoptosis was quantified. Porcine lung EVLP was performed using Steen solution with added nutrients.
(§2) The effects of glutamine in Steen solution on mitochondrial respiration and glycolytic function were examined using a Seahorse XFe analyzer.

[2] = tested on: human pulmonary microvascular endothelial cells (HPMEC); experiment: as above; format: cell-based; conditions: for apoptosis / cell migration: GlutaMax added at 4 mM to Steen solution, vs Steen solution
From the text: as §1, §2

BEAS-2B = experiment: Simulated EVLP cell culture model (cold Perfadex preservation, then perfusion with Steen solution with and without GlutaMax); format: cell-based, human; conditions: for total GSH production: fluorometric assay kit; for apoptosis: GlutaMax 0.5 mM to 4 mM in Steen solution, after 6 h or 18 h cold preservation, simulated EVLP
From the text: (§3) Methods: Human pulmonary microvascular endothelial cells (HPMEC) and human lung epithelial cells (BEAS-2B) were used to determine the effects of Steen solution components on basic cellular function. Cell confluence, apoptosis and migration were visualized and quantified by IncuCyte® Live Cell Analysis System in real-time. A simulated EVLP cell culture model was established by replacing regular culture medium with cold lung preservation solution and followed by “perfusion” with normothermic Steen solution or its modifications. Cell apoptosis was quantified. Porcine lung EVLP was performed using Steen solution with added nutrients. A cell culture model was developed that simulates hypothermic lung preservation and reperfusion and was used to “perfuse” cells with EVLP perfusate, as shown in FIG. 6A. Culture medium of confluent cells was replaced with 4° C. lung preservation solution (Perfadex®) for 6 h or 18 h, and then “perfused” with Steen solution with and without GlutaMax. […] Human lung endothelial and epithelial cells were subjected to simulated EVLP treated with Steen solution with and without GlutaMax. GSH concentration in cell culture was measured with a fluorometric assay kit from BioVision.

HPMEC = experiment: as above; format: cell-based, human; conditions: for total GSH production: fluorometric assay kit; for apoptosis: GlutaMax 0.5 mM to 4 mM in Steen solution, after 6 h or 18 h cold preservation, simulated EVLP
From the text: as §3

IL-8 = IL-8 production in simulated EVLP cell culture model; format: cell-based, human; conditions: prolonged CIT (18 h) and simulated EVLP (12 h)
Procedure: A cell culture model was developed that simulates hypothermic lung preservation and reperfusion and was used to “perfuse” cells with EVLP perfusate, as shown in FIG. 6A. Culture medium of confluent cells was replaced with 4° C. lung preservation solution (Perfadex®) for 6 h or 18 h, and then “perfused” with Steen solution with and without GlutaMax.

pig lung = experiment: Pig lung EVLP with GlutaMax-modified Steen solution; conditions: for lung function: compared with historical controls
From the text: Methods: Human pulmonary microvascular endothelial cells (HPMEC) and human lung epithelial cells (BEAS-2B) were used to determine the effects of Steen solution components on basic cellular function. Cell confluence, apoptosis and migration were visualized and quantified by IncuCyte® Live Cell Analysis System in real-time. A simulated EVLP cell culture model was established by replacing regular culture medium with cold lung preservation solution and followed by “perfusion” with normothermic Steen solution or its modifications. Cell apoptosis was quantified. Porcine lung EVLP was performed using Steen solution with added nutrients. […] During the experiment, EVLP was extended as long as the dynamic lung compliance was greater than 15 ml/cmH2O. […] Pig lungs were preserved at 4° C. followed by EVLP. […] Lung function assessment: Perfusate was sampled regularly. PO2, PCO2, pH, Na^+, K^+, Ca^2+, Cl^−, glucose and lactate were determined via a blood gas analyzer (see FIG. 17; Table 3). Pulmonary function was monitored continuously and assessed every hour, including static and dynamic compliances, peak airway inspiratory pressure, pulmonary artery pressure and pulmonary vascular resistance (PVR). Lung tissue biopsies were collected before, during and at the end of EVLP. Lung wet-to-dry ratio was measured as an indicator of lung edema.

[3] = pH of Steen solution after addition of nutrients; format: physicochemical; conditions: nutrient added to Steen solution (GlutaMax at 4 mM; amino acids at clinically recommended concentrations)
Procedure: Amino acids are essential nutrients for cell proliferation. In rat lungs, the lack of amino acids and insulin in perfusate reduced protein synthesis, while vitamin C prolonged the viability and stability of perfused rat lungs by slowing the decline of mitochondrial activity. Therefore, clinically recommended concentrations of amino acids and/or vitamins were added in Steen solution to improve its performance.

[4] = CIT 6 h and EVLP 4 h, listed as GlutaMAX
[5] = pig lung EVLP, first 18 h, compared with historical control
[6] = different concentrations of Albumin (1, 2, 4, 7%) and Dextran 40 (5, 25, 50 g/L) in Steen solution

pH [3]: maintained in the physiological range
Compound: C[C@H](N)C(=O)N[C@@H](CCC(N)=O)C(=O)O [GlutaMax, L-alanyl-L-glutamine] (H-Ala-Gln-OH)
apoptosis [1]: reduced apoptosis
cell migration [1]: improved cell migration
apoptosis ([1]; listed as L-alanyl-L-glutamine): significantly inhibited cell apoptosis
cell migration ([1]; listed as L-alanyl-L-glutamine): improved cell migration
apoptosis [2]: reduced apoptosis
cell migration [2]: improved cell migration
apoptosis ([2]; listed as L-alanyl-L-glutamine): significantly inhibited cell apoptosis
cell migration ([2]; listed as L-alanyl-L-glutamine): improved cell migration
HSP70 production (protein expression in cell lysates) (BEAS-2B; CIT 6 h and EVLP 4 h): promoted HSP70 production; also recorded: enhanced HSP70 production
total GSH production (BEAS-2B; CIT 6 h and EVLP 4 h): enhanced total GSH production
total GSH production (BEAS-2B; [4]): enhanced Total GSH production
apoptosis (BEAS-2B): reduced apoptosis
apoptosis (BEAS-2B; listed as Glutamax): reduced apoptosis
apoptosis (BEAS-2B; listed as gln): significantly reduced apoptosis
HSP70 production (protein expression in cell lysates) (HPMEC; CIT 6 h and EVLP 4 h): promoted HSP70 production; also recorded: enhanced HSP70 production
total GSH production (HPMEC; CIT 6 h and EVLP 4 h): enhanced total GSH production
total GSH production (HPMEC; [4]): enhanced Total GSH production
apoptosis (HPMEC): reduced apoptosis
apoptosis (HPMEC; listed as Glutamax): reduced apoptosis
apoptosis (HPMEC; listed as gln): significantly reduced apoptosis
IL-8 production (IL-8): inhibited IL-8 production
lung function (pig lung; pig lung EVLP): improved lung function
lung function (pig lung; pig lung EVLP, listed as gln): stable lung function
delta PO2 (pig lung; [5]): higher
dynamic compliance (pig lung; [5]): higher
peak airway pressure (pig lung; [5]): lower
EVLP period (pig lung; pig lung EVLP, gln added to Steen solution): significantly extend
EVLP duration reached (pig lung; pig lung, EVLP extended as long as dynamic lung compliance greater than 15 ml/cmH2O): 36 h

Compound: Dextran 40
cell confluence, apoptosis and migration [1, 6]: no major differences
cell confluence, apoptosis and migration [2, 6]: no major differences
